From patent US11091806B2, “Genetic markers associated with response to CRTH2 receptor antagonists” (Merck Sharp & Dohme Corp., priority 2015, dated 2021)

Columns and labels:
[1] = system: asthmatic subjects with persistent symptoms; experiment: 17-week randomized, double-blind, placebo-controlled, crossover study of FEV1 in asthmatic subjects receiving montelukast, with pharmacogenetic subgroup analysis; type: in vivo, human; conditions: for Estimated mean treatment difference in FEV1 at Week 4 using the new method of analysis, LSMean: Compound A + montelukast vs placebo + montelukast, xdiff=0
Text: FIG. 2 is graphical depiction of the study design. The study was a 17-week randomized, double-blind, placebo-controlled, crossover study with in-house blinding to evaluate the effect of {(7R)-4-fluoro-7-[5-(4-fluorobenzyl)-1H-[1,2,3]triazol-1-yl]-6,7,8,9-tetrahydropyrido[1,2-a]indol-10-yl}-acetic acid (hereinafter “Compound A”) on FEV1 when dosed for 4 weeks in asthmatic subjects with persistent symptoms while receiving montelukast (ML). Overall, 104 patients completed the study. Period I was a pre-study period. Subjects receiving long acting beta-agonists (LABAs) with inhaled corticosteroid (ICS), either separately or as part of a fixed-dose combination, were asked to discontinue the LABA component while still receiving ICS. Period II was a 2- to 4-week run-in period during which subjects receive open-label montelukast (ML) and single-blind placebo (PBO). Subjects receiving ICS or other controllers were required to taper off these medications while receiving montelukast; Period III was a 4-week, double-blind, randomized treatment period during which subjects received either Compound A 150 mg or matching-image placebo while continuing to receive montelukast 10 mg QD; Period IV was a 4-week wash out period during which subjects receive placebo in a single-blind fashion while continuing to receive montelukast 10 mg QD; Period V was a 4-week double-blind period during which subjects were crossed over to the opposite treatment not received during Period III.
The primary efficacy endpoint of the study was forced expiratory volume in 1 second (FEV1) after 4 weeks of dosing, and the study had 85% power to detect a true overall mean treatment difference of 110 mL.
A common analysis for crossover designs with longitudinal measurements in each period uses a linear mixed effects “cell means” model with the clinical measure (here, FEV1) as the dependent variable, and sequence (S=M→P, P→M), treatment (T=M,P), visit (V=0, 2, 4 weeks), and all possible interactions involving S, T, and V as independent variables; M=Compound A+montelukast, P=placebo+montelukast. In addition, to minimize assumptions, a covariance matrix without imposition of any structure (such as compound symmetry) is used to account for the intra-patient correlations among FEV1 responses over time and across the two treatments within each sequence.
This common analysis can be misleading if both of the following conditions are encountered in either crossover sequence: (i) the observed mean difference in baseline means for the two treatments is “far” from zero, and (ii) baseline and post-baseline responses are very strongly correlated (correlation 0.9 or higher). […] Consequently, we analyzed the FEV1 data using an extension of the method of analysis described in Mehrotra D V, Pharmaceutical Statistics 13, 376-387 (2014). This second analytical method is specifically designed for crossover analyses with baseline measurements. To do so, we added “xdiff” (baseline difference between treatments M and P) and interactions between xdiff and all the other fixed effect terms involving S, T, and V to the aforementioned common analysis crossover model; the mean treatment difference at week 4 was estimated at xdiff=0 via the SAS code below.
In the SAS code above, patients with a missing xdiff value are automatically removed from the analysis. To generate results in which all 103 patients are retained in the analysis, missing period 2 baseline FEV1 values (resulting in missing xdiff values, which was the case for ˜20% of the patients due to dropout) were imputed separately in each sequence via a simple linear regression model with the period 2 baseline as the dependent variable and the corresponding period 1 baseline as the independent variable. As noted earlier, the observed correlation between period 1 and period 2 FEV1 baselines was 0.9 in both sequences, providing reassurance that the imputed values for missing period 2 baselines had good reliability. […]

allergic rhinitis = conditions: in vivo; cited from earlier work
[2] = system: patient population afflicted with eosinophilic severe asthma; conditions: patients with eosinophilic severe asthma; Phase IIa; cited from earlier work

With `O=C(O)Cc1c2n(c3c(F)cccc13)C[C@H](n1nncc1Cc1ccc(F)cc1)CC2` [Compound A, {(7R)-4-fluoro-7-[5-(4-fluorobenzyl)-1H-[1,2,3]triazol-1-yl]-6,7,8,9-tetrahydropyrido[1,2-a]indol-10-yl}-acetic acid] the “FEV1: Estimated Mean Treatment Difference at Week 4 by Genotype Subgroup for rs12748961, LSMean” value ([1]; C = 0 (N = 74), no copies of the C allele) was 59 mL, the “FEV1: Estimated Mean Treatment Difference at Week 4 by Genotype Subgroup for rs12748961, LSMean” value ([1]; C ≥1 (N = 29), one or two copies of the C allele) was 268 mL and the “Estimated mean treatment difference in FEV1 at Week 4 using the new method of analysis, LSMean” value ([1]; missing period 2 FEV1 baselines imputed: No (N = 85)) was 120 mL. The “Estimated mean treatment difference in FEV1 at Week 4 using the new method of analysis, LSMean” value ([1]; missing period 2 FEV1 baselines imputed: Yes (N = 103)) was 122 mL, the “Effectiveness in improving FEV1 levels relative to placebo” value ([1]; after four weeks of treatment in patients who continue to take montelukast as background therapy) was “notably more effective” and the “Estimated benefit (FEV1) in patients without the C allele of rs12748961” value ([1]; remaining 70% of the patients (C = 0)) was “relatively small”.
For `O=C(O)CCn1c2c(c3ccccc31)C[C@H](NS(=O)(=O)c1ccc(F)cc1)CC2` [Ramatroban, 3-((3R)-3-{[(4-fluorophenyl)sulfonyl]amino}-1,2,3,4-tetrahydro-9H-carbazol-9-yl)propanoic acid], the “Efficacy in allergic rhinitis” value (allergic rhinitis) is given as “some degree of efficacy”.
For `Cc1c(CC(=O)O)c2cccnc2n1Cc1ccc(S(C)(=O)=O)cc1C(F)(F)F` [fevipiprant, 2-(2-methyl-1-(4-(methylsulfonyl)-2-(trifluoromethyl)benzyl)-1H-pyrrolo[2,3-b]pyridin-3-yl)acetic acid], the Sputum eosinophils [2] is listed as “reduction of sputum eosinophils”.
